Assays:
[1] = dose of 20 mg as a single intake; cited from earlier work
[2] = biological target: type 4 phosphodiesterases (PDE4); assay: Inhibition of the phosphodiesterase (PDE4), enzymatic preparation from line U937; type: biochemical; settings: PDE4 from cytosolic preparation of human cell line U937
Method in brief: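 PDE4 came from a cytosolic preparation of human U937 cells. Enzymatic activity was measured with inhibitor at 0.1 to 100 μM. IC50 was defined as the concentration inhibiting 50% of enzyme activity.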

[3] = system: TNFα production in plasma; assay: In vivo TNFα model in Wistar rat; settings: po, 1.5 h, 10 mg/kg p.o. 30 min before LPS i.p., plasma TNFα 90 min after LPS, male Wistar rats, read-out: % Inhibition to 10 mg/kg
Source text: The TFNα is a cytokin playing a central role in inflammation mechanisms. Its production may be induced by injection of lipopolysaccharid (LPS). It has been shown that the intracellular AMPc increase, produced in particular by PDE4 inhibitors, decreases the TNFα production in in vitro and in vivo models. Therefore it matters here to quantify in vivo anti-inflammatory potential of the compounds of the invention, administrated by oral route (p.o.) by measuring inhibition of TNFα production in plasma in rat, the latter having received a intraperitoneal injection (i.p.) of lipolysaccharid (LPS). The treatment by the compounds of the invention or the carrier is administrated by oral route in male Wistar rats, 30 min. before LPS injection. The rats are sacrificed 90 min. after LPS stimulation, the blood is harvested on EDTA and TNFα concentration is measured in each plasma sample.

[4] = system: TNFα production by human leukocytes; assay: Inhibition of TNFα production by human leukocytes stimulated by lipopolysaccharid; type: cell-based; settings: Leukocyte; LPS-stimulated human leukocytes in 75% human serum; TNFα by ELISA after 15-18 hours
Experimental: This test aims to evaluate capacity of the compounds of the invention to inhibit TNFα (tumor necrosis-α) production by human leukocytes in the presence of high human serum concentration (75%). […] The test described here is based on the use of human leukocytes cultivated in 75% of human serum. It had been previously documented that these conditions simulate the observed situation when TNFα dosage is performed in human blood.
The compounds to test are dissolved into 20 mM (sometimes 6 mM) of DMSO. 100 μl of DMSO are distributed into 7 wells of a a 96 well microtiter plate (wells B to H). 150 μl of the compound solution are distributed into line A wells. 50 μl are then sequentially transferred 7 times. 20 μl of this serial dilutions of compounds are sequentially transferred twice in wells containing 180 μl of RPMI 1640 (Gibco). 50 μl of these dilutions are then transferred in wells where cells will be added.
Each test includes a series of eight wells without LPS (100% of inhibition), eight wells with LPS (0% of inhibition) and a series of Rolipram dilutions in order to enable comparison of the tests between each other and then to evaluate their variability.
A leukocyte vial is unfrozen in bain-marie (37° C.), its content is transferred into a 15 ml tube containing 10 ml of RPMI added with 5% of human serum (RPMI-5% HS). The cells are sedimented (800 g, 6 minutes, 4° C.), resuspended in 10 ml of the same medium and counted by dilution in Trypan blue solution. After centrifugating (800 g, 6 minutes, 4° C.), the cells are resuspended to 2×10^6/ml in human serum.
To 50 μl aliquots of different dilutions of compounds, 100 μl of cells are added. The plates are then incubated 30 minutes at 37° C., then 50 μl of solution 4 μg/ml of LPS prepared in human serum are added. The plates are incubated for the night at 37° C.
After incubation for 15-18 hours, 90 μl of growth supernatant are taken and transferred into rounded-bottom microtiter wells. The TNFα presence is then evaluated by ELISA (Pharmingen) by using 50 μl of supernatant. The protocol described by the manufacturer is strictly applied.

COc1ccc([C@]2(C#N)CC[C@@H](C(=O)O)CC2)cc1OC1CCCC1 [Ariflo]
adverse events [1]: significant adverse events, of the nausea and vomiting type

CN(C)c1nnc2n(Cc3ccc(C#N)cc3)c(=O)c3cc(Br)ccc3n12 [Compound 79, 4-(7-Bromo-1-dimethylamino-5-oxo-5H-[1,2,4]triazolo[4,3-a]quinazolin-4-ylmethyl)-benzonitrile]
IC50 [2]: 140 nM
change in vivo at 10 mg/kg [3]: -72%
melting point: 207 °C
IC50 [4]: 5200 nM

CN(C)c1nnc2n(CC=Cc3ccccc3)c(=O)c3cc(Br)ccc3n12 [Compound 85, 7-Bromo-1-dimethylamino-4-(3-phenyl-allyl)-4H-[1,2,4]triazolo[4,3-a]quinazolin-5-one]
IC50 [2]: 41 nM
change in vivo at 10 mg/kg [3]: -77%
melting point: 171 °C
IC50 [4]: 6800 nM

COc1ccc(Cn2c(=O)c3cc(C)ccc3n3c(N4CCCC4)nnc23)cc1OC [Compound 94, 4-(3,4-Dimethoxy-benzyl)-7-methyl-1-pyrrolidin-1-yl-4H-[1,2,4]triazolo[4,3-a]quinazolin-5-one]
IC50 [2]: 29 nM
change in vivo at 10 mg/kg [3]: -87%
melting point: 184 °C
IC50 [4]: 6300 nM

Cc1ccc2c(c1)c(=O)n(CC=Cc1cccnc1)c1nnc(N(C)C)n21 [Compound 104, 1-Dimethylamino-7-methyl-4-(3-pyridin-3-yl-allyl)-4H-[1,2,4]triazolo[4,3-a]quinazolin-5-one]
IC50 [2]: 77 nM
change in vivo at 10 mg/kg [3]: -94%
melting point: 155 °C
IC50 [4]: 8100 nM

Reference: patent publication US6828315B1, “1-Amino triazoloc4,3-a! quinazoline-5-ones and/or -5-thiones inhibiting phosphodiesterase IV” (Warner-Lambert LLC, priority 1999, dated 2004)
